pEC50: −log10 of the molar value.
Assays:
[1] = target: μ receptors (Homo sapiens, UniProt P35372); experiment: Opiate receptor radioligand binding, competition with diprenorphine, naltrexone control; settings: compared to naltrexone control; test concentration not given
Excerpt: Opiate Receptor Binding of (S)-7,8-saturated-4,5α-epoxy-morphinaniums. Radioligand binding assays may be conducted to determine the binding specificity of an (S)-7,8-saturated-4,5-epoxy-morphinanium for μ-, κ-, and δ-opiate receptors using methods adapted from scientific literature (Simonin, F et al 1994, Mol. Pharmacol. 46:1015-1021; Maguire, P. et al 1992, Eur. J. Pharmacol. 213:219-225; Simonin, F. et al PNAS USA 92(15):1431-1437; Wang, J B 1994, FEBS Lett 338:217-222). For example, a membrane may be associated with human opioid receptor material. Diprenorphine which has an affinity for all […] opioid receptors, can be used as a competitive challenge to the test compound. Membranes can then be separated, and the binding of the test compounds to the receptor material can be determined by scintillation counting. A control, such as naltrexone, can be used to determine relative binding affinity.

[2] = target: T1, μ-opioid receptors in the guinea pig ileum (Cavia porcellus, UniProt A0ACM8Q262); experiment: Field-stimulated guinea pig ileum, evaluation of antagonist activity against DAMGO; settings: for remaining activity at 100 µM / remaining activity at 10 µM / remaining activity at 1 µM / remaining activity at 0.1 µM / remaining activity at 0.01 µM / remaining activity at 30 µM / remaining activity at 3 µM / remaining activity at 0.3 µM / remaining activity at 0.03 µM: guinea pig, mean, n=2, read-out: Response to DAMGO (1.0E-07 M) in the presence of the compound, percent of the control response to DAMGO; for remaining activity at 100 µM: compound 1.0E-04 M; for remaining activity at 10 µM: compound 1.0E-05 M; for remaining activity at 1 µM: compound 1.0E-06 M; for remaining activity at 0.1 µM: compound 1.0E-07 M; for remaining activity at 0.01 µM: compound 1.0E-08 M; for remaining activity at 30 µM: compound 3.0E-05 M; for remaining activity at 3 µM: compound 3.0E-06 M; for remaining activity at 0.3 µM: compound 3.0E-07 M; for remaining activity at 0.03 µM: compound 3.0E-08 M; for Antagonist activity IC50 value: inhibition of the response to DAMGO, guinea pig ileum
Method: (§1) In Vitro Pharmacology of (S)-7,8-saturated-4,5α-epoxy-morphinaniums on μ receptor. Mμ-receptor agonist/antagonist activity may be adjudged by use of field-stimulated guinea pig ileum by methods known in the art. For example, segments of guinea pig terminal ileum may be suspended in 20-ml organ baths filled with an oxygenated (95% O2 and 5% CO2) and pre-warmed (37° C.) physiological salt solution of the following composition (in mM): NaCl 118.0, KCl 4.7, MgSO4 1.2, CaCl2 2.5, KH2PO4 1.2, NaHCO3 25.0 and glucose 11.0 (pH 7.4). Additional experimental conditions that may be followed are described in Hutchinson et al. (1975) Brit. J. Pharmacol., 55:541-546.
(§2) Indomethacin (1 μM), nor-binaltorphimine (0.01 μM), methysergide (1 μM), ondansetron (10 μM) and GR113808 (0.1 μM) may be also present throughout an experiment to prevent prostanoid release and to block the k-opioid, 5-HT2, 5-HT3 and 5-HT4 receptors, respectively. The tissues in such tests are typically connected to force transducers for isometric tension recordings. The tissue may be stretched to a resting tension, for example, of 1 g then allowed to equilibrate, for example, about 60 min during which time they may be washed repeatedly and the tension readjusted. Electrical stimulation with pulses of minimal intensity to trigger maximal contractions and a short duration, for example, 1 ms duration, delivered by a constant current stimulator at a frequency such a 0.1 Hz.
Exemplary Test for Antagonist Activity. The tissues may be exposed to a submaximal concentration of the reference agonist DAMGO (0.1 μM) to obtain a control response. […] Each concentration may be left in contact with the tissues until a stable response is obtained or for a maximum time, such as 15 min. The maximum change in the amplitude of the electrically-evoked twitch contractions induced by each compound concentration may be measured. […] The EC50 value (concentration producing a half-maximum response) or IC50 value (concentration causing a half-maximum inhibition of the response to DAMGO) may be determined by linear regression analysis of the concentration-response curves. Inhibition of the DAMGO-induced response by the (S)-7,8-saturated-4,5-epoxy-morphinanium may indicate an antagonist activity at the μ receptors.

[3] = target: T1, μ-opioid receptors in the guinea pig ileum; experiment: Field-stimulated guinea pig ileum, evaluation of agonist activity; settings: for activation at 100 µM: 1.0E-04 M; for activation at 10 µM: 1.0E-05 M; for activation at 0.1 µM: 1.0E-07 M; for activation at 0.01 µM: 1.0E-08 M; for activation at 30 µM: 3.0E-05 M; for activation at 3 µM: 3.0E-06 M; for activation at 0.3 µM: 3.0E-07 M; for activation at 0.03 µM: 3.0E-08 M; for Response to compound + Naloxone, percent of the control response to DAMGO: compound 1.0E-04 M + Naloxone 1.0E-07 M; for activation at 1 µM: 1.0E-06 M
Method: as §1, §2
Exemplar Test for Agonist Activity. The tissues may be exposed to a submaximal concentration of the reference agonist DAMGO (0.1 μM) to verify responsiveness and to obtain a control response. Following extensive washings and recovery of the control twitch contractions, the tissues may be exposed to increasing concentrations of the (S)-7,8-saturated-4,5-epoxy-morphinanium or the same agonist. The different concentrations may be added cumulatively and each left in contact with the tissues until a stable response is obtained or for a maximum of 15 min.

[4] = mean, n=2, read-out: Response to compound (decrease in twitch contraction amplitude), percent of the control response to DAMGO

μ receptors, sequence (P35372 whole entry): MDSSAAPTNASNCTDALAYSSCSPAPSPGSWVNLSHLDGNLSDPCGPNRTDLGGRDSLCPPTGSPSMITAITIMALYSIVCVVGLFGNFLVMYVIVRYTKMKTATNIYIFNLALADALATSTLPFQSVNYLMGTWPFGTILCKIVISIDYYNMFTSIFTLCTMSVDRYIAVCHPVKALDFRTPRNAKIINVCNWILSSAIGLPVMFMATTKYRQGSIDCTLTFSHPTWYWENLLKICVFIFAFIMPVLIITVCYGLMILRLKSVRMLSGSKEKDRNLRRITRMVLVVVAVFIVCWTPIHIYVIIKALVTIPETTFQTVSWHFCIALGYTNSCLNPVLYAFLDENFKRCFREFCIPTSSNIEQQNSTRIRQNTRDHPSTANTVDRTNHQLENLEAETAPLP
T1 sequence (A0ACM8Q262 1-400): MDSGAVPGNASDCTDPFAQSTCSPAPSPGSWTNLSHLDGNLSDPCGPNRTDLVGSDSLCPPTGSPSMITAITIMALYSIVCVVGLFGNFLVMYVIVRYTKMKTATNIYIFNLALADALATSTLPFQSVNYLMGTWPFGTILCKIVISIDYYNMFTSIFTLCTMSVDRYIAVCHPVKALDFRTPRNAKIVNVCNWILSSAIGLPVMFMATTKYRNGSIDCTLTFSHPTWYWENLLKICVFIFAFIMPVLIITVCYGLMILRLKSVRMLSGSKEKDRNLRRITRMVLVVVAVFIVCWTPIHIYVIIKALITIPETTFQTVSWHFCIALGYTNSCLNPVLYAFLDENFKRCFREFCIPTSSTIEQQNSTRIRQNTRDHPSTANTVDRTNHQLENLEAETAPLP

Compound | inhibition of control specific binding at the μ receptor [1] [%] | remaining activity at 100 µM [2] [%] | remaining activity at 10 µM [2] [%] | remaining activity at 1 µM [2] [%] | remaining activity at 0.1 µM [2] [%] | remaining activity at 0.01 µM [2] [%] | remaining activity at 30 µM [2] [%] | remaining activity at 3 µM [2] [%] | remaining activity at 0.3 µM [2] [%] | remaining activity at 0.03 µM [2] [%] | Antagonist activity IC50 value [2] | activation at 100 µM [3, 4] [%] | activation at 10 µM [3, 4] [%] | activation at 0.1 µM [3, 4] [%] | activation at 0.01 µM [3, 4] [%] | activation at 30 µM [3, 4] [%] | activation at 3 µM [3, 4] [%] | activation at 0.3 µM [3, 4] [%] | activation at 0.03 µM [3, 4] [%] | Response to compound + Naloxone, percent of the control response to DAMGO ([3]; mean, n=2) [%] | further results
CC(C)=CC[N+]1(C)CC[C@]23c4c5ccc(O)c4O[C@H]2C(=O)CC[C@@]3(O)[C@H]1C5.[I-] (stereo partly drawn) [(S)-17-(3,3-dimethylallyl)-4,5α-epoxy-3,14-di-hydroxy-17-methyl-6-oxomorphinanium iodide] | 65 |  |  |  |  |  |  |  |  |  |  |  |  |  |  |  |  |  |  |  | 
C=CC[N+]1(CC2CC2)CC[C@]23c4c5ccc(O)c4O[C@H]2C(=O)CC[C@@]3(O)[C@H]1C5 (stereo partly drawn) [(S)-17-Allyl-17-cyclopropylmethyl-4,5α-epoxy-3,14-di-hydroxy-6-oxomorphinanium Iodide] | 68 |  |  |  |  |  |  |  |  |  |  |  |  |  |  |  |  |  |  |  | 
CC(C)=CC[N+]1(C)CC[C@]23c4c5ccc(O)c4O[C@H]2C(=O)CC[C@@]3(O)[C@H]1C5.[I-] (stereo partly drawn) [(S)-DMAM, (S)-17-(3,3-dimethylallyl)-4,5α-epoxy-3,14-di-hydroxy-17-methyl-6-oxomorphinanium iodide] |  | 113 | 110 | 101 | 100 | 100 | 113 | 105 | 100 | 100 | No antagonist activity | 101 | 93 | 8 | 0 | 99 | 77 | 19 | 0 | 77 | pEC50 ([3]; read-out: Agonist activity EC50 value, concentration producing a half-maximum response, guinea pig ileum): 5.89
C[N+]1(CC#Cc2ccccc2)CC[C@]23c4c5ccc(O)c4O[C@H]2C(=O)CC[C@@]3(O)[C@H]1C5 (stereo partly drawn) [(S)-PM] | 80 | 110 | 100 | 100 | 100 | 100 | 100 | 100 | 100 | 100 | No antagonist activity | 89 | 53 | 6 | 0 | 71 | 38 | 12 | 0 | 30 | activation at 1 µM [3, 4]: 25%
C[C@@H](NC(=O)[C@@H](N)Cc1ccc(O)cc1)C(=O)NCC(=O)N(C)[C@@H](Cc1ccccc1)C(=O)NCCO [DAMGO, reference compound] |  |  |  |  |  |  |  |  |  |  |  |  |  | 96 | 57 |  |  |  |  |  | activation at 1 µM [3, 4]: 103%; activation at 0.001 µM ([3]; 1.0E-09 M, mean, n=2, read-out: Response to compound (decrease in twitch contraction amplitude), percent of the control response to DAMGO): 9%; Response to DAMGO + Naloxone, percent of the control response to DAMGO ([3]; highest DAMGO concentration + Naloxone 1.0E-07 M, mean, n=2): 4%

Reference: patent US20080207669A1, “(S)-N-Stereoisomers of 7,8-Saturated-4,5-Epoxy-Morphinanium Analogs” (Progenics Pharmaceuticals, Inc., priority 2006, published 2008)
